Measurements published in ChEMBL document CHEMBL1151660, “Carotenoids of tunicates. III. The structural elucidation of two new marine carotenoids, amarouciaxanthin A and B” (1985).
≈ marks a conversion by molar mass, not a printed value.

Experiments:
P388 = test: Cytotoxicity against mouse P388 cells after 4 days; format: functional; conditions: P388, 96 h, read-out: ED50 (the source's name)
L1210 = test: Cytotoxicity against mouse L1210 cells after 4 days; format: functional; conditions: L1210, 96 h, read-out: ED50 (the source's name)

CC1=CC(=O)CC(C)(C)[C@@]1(O)CC(=O)/C(C)=C/C=C/C(C)=C/C=C/C=C(C)/C=C/C=C(\C)C=C=C1C(C)(C)C[C@H](O)C[C@@]1(C)O [AMAROUCIAXANTHIN A]
EC50 (P388): 150 µg/mL (≈ 244 µM)
EC50 (L1210): 50 µg/mL (≈ 81.3 µM)

CC1=CC(=O)CC(C)(C)[C@@]1(O)CC(=O)/C(C)=C/C=C/C(C)=C/C=C/C=C(C)/C=C/C=C(\C)C#CC1=C(C)C[C@@H](O)CC1(C)C [AMAROUCIAXANTHIN B]
EC50 (P388): 300 µg/mL (≈ 503 µM)
EC50 (L1210): 100 µg/mL (≈ 168 µM)

CC1=C(C#C/C(C)=C/C=C/C(C)=C/C=C/C=C(C)/C=C/C=C(\C)C(=O)C[C@@]23O[C@]2(C)C[C@@H](O)CC3(C)C)C(C)(C)C[C@H](O)C1 [HALOCYNTHIAXANTHIN]
EC50 (P388): 12.5 µg/mL (≈ 20.9 µM)
EC50 (L1210): 25 µg/mL (≈ 41.7 µM)
